The source of these data is US9814732B2, “Ulipristal acetate for prevention and treatment of breast tumors” (LABORATOIRE HRA-PHARMA, priority 2012, dated 2017).

Structures are written as SMILES.

The test system of series [1] is PR target genes (FASN, cyclin A, BCL2, ALPL). Kind of series: qRT-PCR mRNA expression of PR target genes in HBE cells. The format is cell-based, human. Here is the method: (§1) After seeding, cells were cultured for 24 h in serum and phenol red free medium. Then treatments were carried out in a phenol red free medium containing 5% dextran-charcoal stripped serum. Cells were treated with P or DEX (100 nM), alone or in combination with UPA, RU (1 nM to 1 μM) or CDB-3877 (100 nM). Control cells were treated with ethanol, at […] 1:1000 final ethanol concentration alone as vehicle or E2 (10 nM).
Total RNA was extracted using TriZOL Reagent (Invitrogen, Cergy-Pontoise, France).
2 μg of total RNA was subjected to reverse transcription (RT) using random primers for 1 h at 37° C. 2 μl of RT product was diluted (1:10) and subjected to quantitative PCR using sequence specific primers (300 nM) and Brillant SYBR GREEN QPCR master mix (Fermentas, Saint-Rémy-lès-Chevreuse, France) on an Mx3000P apparatus (Agilent Technologies, Massy, France). Conditions were 1 cycle at 95° C. for 10 min followed by 40 cycles at 95° C. for 30 sec, 60° C. for 1 min and 72° C. for 30 sec. Gene expression values were normalized to the housekeeping gene 36B4. Time of steroid treatment was chosen to get the optimal stimulation for a given gene. ALPL and G0S8 mRNA were analyzed after 6 h of treatment. IEX-1, FASN, and BCL2 were analyzed after 24 h of treatment. Cyclin A mRNA was analyzed after 24 h for GR responses or 48 h for PR responses.
On the technique in general: Real-time PCR tracks product formation cycle by cycle.

The test system of a further series is HBE cells. Kind of series: Tritiated thymidine incorporation (proliferation) in HBE cells. The following applies: 96 h. It is filed as cell-based, human. Here is the method:
as §1
After 24 h of hormonal treatment, cells were incubated with [methyl-1 3H] thymidine (Perkin Elmer, Courtaboeuf, France) for 48 h or 20 h for KBE or cancer cells, respectively at 37° C. After incubation cells were washed twice with PBS 1× and once with 5% trichloroacetic acid (TCA). Cells were incubated in 5% TCA for 15 min at 4° C. and lysed in NaOH 0.1 N for 30 min at 37° C. The total cell lysate was added to 5 ml of Ecolite scintillation liquid (MP biomedical, Illkirch, France) and radioactivity was counted with a β-counter HIDEX 300SL (ScienceTec, Courtaboeuf, France).

Series [2] has as its system human breast tissue carrying BRCA1 mutations, xenografts. Kind of series: Ki67 mitotic index in BRCA1 mutated human breast tissue xenografted in nude mice. The format is in vivo. The following applies: E2+P+UPA vs E2+P, lobular and ductal cells, 28 days. Here is the method:
Mitotic index was calculated using the Ki67 antibody, and was determined for each breast tissue grafted into mice. Immunohistochemical analyses were performed using the BOND-MAX workstation (Leica, Nanterre, France). Paraffin sections of breast tissue xenografts were de-waxed and rehydrated before antigen retrieval using citrate retrieval solution (pH 6.0) for Ki67 antibody or EDTA retrieval solution (pH 9.0) for PR and ERalpha antibodies, for 30 min. Sections were then incubated with Ki67 at 1:100 (Novocastra, NCL5 L-Ki67-MM1), PR at 1:80 (Biogenex, MU-328-UC) or ER at 1:300 (Novocastra, NCL-L6 ER-6F11) monoclonal antibodies. For signal detection, the Kit Bond Polymer Refire Detection was used. Reagents were purchased from Menarini-Diagnostic (Rungis, France). A negative control (omitting the first antibody) was included in each set. For each marker, determination of the ratio of positive cells was performed on a total of 1 000 lobular and 1 000 ductal luminal cells in the 4 breast tissue fragments grafted into each mouse. For each experiment, the final percentages for each treatment were the mean of percentages obtained in the four mice per group.
Mutated breast tissue samples were obtained from 5 women (36-57 years old) carrying mutations for BRCA1.
Xenografts were performed as described above (Example 2). […]

Series [3] can be described thus: Tolerability and body weight in HBCx-34 tumor-bearing nude mice. It is filed as in vivo. The following applies: UPA 130 mg/kg p.o., 42 days. Here is the method:
Mice were allocated to different groups according to their tumor volume to give homogenous mean and median tumor volume in each treatment arms. Ten mice/group, with HBCx-34 tumors between 75 and 144 mm^3, were randomized according to their tumor volume into experimental groups, and treatments (UPA 130 mg/kg, p.o. or control vehicle) were initiated 33 days post implantation of the tumor for a total duration of 42 days.
Animals were weighted biweekly during all the experimental period. Toxicity of the different treatments was determined as body weight loss.

The mark [4] stands for this setting: P and/or UPA 100 nM, E2 10 nM, 24 h.

Turning to `CC(=O)O[C@]1(C(C)=O)CCC2C3CCC4=CC(=O)CCC4=C3[C@@H](c3ccc(N(C)C)cc3)C[C@@]21C` (some centres unmarked) [UPA, 17[…]-acetoxy-11[…]-[4-N,N-dimethylamino-phenyl)-19-norpregna-4,9-diene-3,20-dione], in series [1] (setting [4]), the “BCL2 mRNA expression (PR response)” value was “did not reverse BCL2 mRNA down-regulation induced by P” and the “FASN mRNA expression” value is given as “able to prevent P induction of FASN mRNA expression”. Besides, in series [1] (P and/or UPA 100 nM, E2 10 nM, 48 h), the “cyclin A mRNA expression (PR response)” value was “reversed P-induced cyclin A mRNA down-regulation”. In addition, in series [1] (UPA 100 nM alone), the “PR agonist activity on PR target genes” value is on record as “did not display any PR agonist activity”. Besides, the “cell proliferation ([3H] thymidine incorporation), compound alone” value in the series with HBE cells (100 nM) is reported as “had no effect on proliferation”. Also, the “effect of UPA on DEX-mediated proliferation change” value in the series with HBE cells (DEX 100 nM + UPA 100 nM) is given as “inhibited the strong proliferative activity induced by DEX”. In addition, the “effect of UPA on P-mediated proliferation change” value with HBE cells (P 100 nM + UPA 100 nM) is recorded as “did not inhibit the anti-proliferative effect induced by P”. In series [2], the “proliferation (Ki67 mitotic index) stimulated by E2+P” value is given as “exhibited antiproliferative activity”. Further, in series [3], the body weight loss entry is “no significant body weight loss”, the tolerability of treatment entry is given as “well tolerated” and the “treatment related clinical observation” value is recorded as “No treatment related clinical observation”.
